Patent publication US9045781B2, “Process for the production of optically-active esters of lactic acid and lactyllactic acid” (Plaxica Limited, priority 2011, dated 2015)

From the text: The solubility of lactide in different solvents was investigated.

Solubility of lactide in a n-BuOH/acetone system: 1.44 g | Solubility of lactide in different solvents, rank order: Acetone>>n-BuOH>t-BuOH
SMILES: CC1OC(=O)C(C)OC1=O (racemic) [lactide, 3,6-dimethyl-1,4-dioxan-2,5-dione]
